Values joined by “and” are separate entries in the source; they are usually repeats but may differ in a detail not shown here. Equal values may be shown once.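 Method: 48-hour compound exposure of cells in 96-well plates, five concentrations, linear interpolation of endpoints. The concentration for 50% growth inhibition is given as GI50. The concentration for full growth arrest is given as TGI.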 Where a SMILES comes first, the peptide text is derived from it. [ ]: non-standard residue; d: D form. 2Nal = N[CH](Cc1ccc2ccccc2c1)C(=O)O
Experiments:
Test in all cases: NCI anticancer screen, dose series, 48 h
A549 NSCLC = test system: A549 NSCLC
HOP-62 NSCLC = test system: HOP-62 NSCLC
IGROV1 ovarian = test system: IGROV1 ovarian
NCI-H23 lung = test system: NCI-H23 lung
SNB-19 CNS = test system: SNB-19 CNS
TK-10 renal = test system: TK-10 renal
UACC-257 melanoma = test system: UACC-257 melanoma
UACC-62 melanoma = test system: UACC-62 melanoma
SK-OV-3 ovarian = test system: SK-OV-3 ovarian

Row | Compound | TGI (A549 NSCLC) | TGI (HOP-62 NSCLC) | TGI (IGROV1 ovarian) | TGI (NCI-H23 lung) | TGI (SNB-19 CNS) [µM] | TGI (TK-10 renal) [µM] | TGI (UACC-257 melanoma) [µM] | TGI (UACC-62 melanoma) | TGI (SK-OV-3 ovarian) [µM] | GI50 (HOP-62 NSCLC) [µM] | GI50 (IGROV1 ovarian) [µM] | GI50 (NCI-H23 lung) [µM] | GI50 (SK-OV-3 ovarian) [µM] | GI50 (SNB-19 CNS) [µM] | GI50 (TK-10 renal) [µM] | GI50 (UACC-257 melanoma) [µM] | GI50 (UACC-62 melanoma) [µM] | GI50 (A549 NSCLC) [µM]
1 | COC1OC(C)C(OC(=O)C(C)(C)C)C(C)(O)C1O (stereo not drawn) | > 100 µM | > 100 µM | > 100 µM | > 100 µM | > 100 | > 100 | > 100 | > 100 µM |  |  |  |  |  |  |  |  |  | 
2 | CC(=O)Nc1ccc(/C=c2\sc3nnc(/C=C/c4ccccc4)n3c2=O)cc1 | > 50 µM | > 50 µM | > 50 µM | > 50 µM | > 50 | > 50 | > 50 | > 50 µM | > 50 |  |  |  |  |  |  |  |  | 
3 | CSc1s[s+]c(SC)c1[O-] | > 100 µM | > 100 µM | > 100 µM | 50.4 µM | > 100 | > 100 | 50.2 | 28.2 µM | > 100 |  |  |  |  |  |  |  |  | 
4 | O=C1C=C(Br)C(=O)C(Br)=C1 | > 100 µM | > 100 µM | > 100 µM | > 100 µM | > 100 | > 100 | > 100 | > 100 µM | > 100 |  |  |  |  |  |  |  |  | 
5 | C=C(CO)CC(O)c1ccccc1 (stereo not drawn) | > 100 µM | > 100 µM | > 100 µM | > 100 µM | > 100 | > 100 |  | > 100 µM | > 100 |  |  |  |  |  |  |  |  | 
6 | Cc1ccc(C(=O)/C=C/c2ccccc2Cl)cc1 | 85.4 µM | > 100 µM | 32.9 µM | 40.1 µM | 32.5 | 61.7 | 33.6 | 27.7 µM | 99.5 |  |  |  |  |  |  |  |  | 
7 | CN/N=C(\C)CC(=O)Nc1cccc(Cl)c1C | > 100 µM | > 100 µM | > 100 µM | > 100 µM | > 100 | > 100 | > 100 | > 100 µM | > 100 |  |  |  |  |  |  |  |  | 
8 | O=C(O)/C(O)=C1/C=C(c2ccccc2)c2ccccc21 | 71.4 µM | 55.2 µM | 51.8 µM |  | 83.9 | 79.8 | 48.1 | 30 µM | > 100 |  |  |  |  |  |  |  |  | 
9 | Cc1ccccc1NC(=O)C(=O)Cc1nc2ccccc2s1 | > 100 µM | > 100 µM | > 100 µM | > 100 µM | > 100 | > 100 | > 100 |  | > 100 |  |  |  |  |  |  |  |  | 
10 | CN(C)CC1(C)CC/C(=C\c2ccc3c(c2)OCO3)C1=O (stereo not drawn) | > 100 µM | > 100 µM | > 100 µM | > 100 µM | > 100 | > 100 | > 100 | > 100 µM |  |  |  |  |  |  |  |  |  | 
11 | CCCCCN(CCCCC)C(=O)[C@@H](CCC(=O)OCc1ccccc1)NC(=O)c1cc2ccccc2[nH]1 | > 100 µM | > 100 µM | > 100 µM | > 100 µM | > 100 |  | > 100 | > 100 µM | > 100 |  |  |  |  |  |  |  |  | 
12 | O=C(O)C1Cc2nc[nH]c2CN1 (stereo not drawn) | > 100 µM |  | > 100 µM | > 100 µM | > 100 | > 100 | > 100 | > 100 µM | > 100 |  |  |  |  |  |  |  |  | 
13 | Clc1ccc2c(NCCCN3CCN(c4nc(-n5ccnc5)nc5ccccc45)CC3)ccnc2c1 |  | > 100 µM | 23.7 µM | > 100 µM | 6.49 | 3.39 | 3.81 | > 67.1 µM | > 62.8 | 44.8 | 2.96 | > 27.5 | > 47.3 | 2.55 | 1.72 | 2 | > 37.7 | 
14 | Oc1cccc(C2SCc3nc4ccccc4n32)c1 (stereo not drawn) | > 100 µM |  |  | > 100 µM | > 100 | > 100 | > 100 | > 100 µM | > 100 |  |  |  |  |  |  |  |  | 
15 | Nc1nc(N)c(-c2ccccc2)c(C(=O)Nc2ccc(Cl)c(Cl)c2)n1 | > 100 µM | > 100 µM | > 100 µM | > 100 µM | > 100 | > 100 | > 100 | > 100 µM |  |  |  |  |  |  |  |  |  | 
16 | C=C(C)C1CC[C@]2(C(=O)O)CCC3(C)[C@H](CCC4[C@@]5(C)CC[C@H](OC6OC(CO)C(O)C6OC6OC(C)C(O)C(O)C6O)[C@@](C)(CO)C5CC[C@]43C)C12 (stereo partly drawn) | > 100 µM | > 100 µM | > 100 µM | > 100 µM | > 100 | > 100 |  | > 100 µM |  |  |  |  |  |  |  |  |  | 
17 | Cc1ccc(NC(=O)SCCC(=O)O)cc1NC(=O)SCCC(=O)O | > 100 µM | > 100 µM | > 100 µM | > 100 µM | > 100 | > 100 | > 100 |  |  |  |  |  |  |  |  |  |  | 
18 | COc1cc(C2C(C(=O)O)=C(C)Oc3cc4c(cc32)OCO4)cc(OC)c1OC (stereo not drawn) | > 100 µM |  | > 100 µM | > 100 µM | > 100 | > 100 | > 100 | > 100 µM | 91.2 |  |  |  |  |  |  |  |  | 
19 | CC(NC(=O)C(N)Cc1ccccc1)C(=O)NC(Cc1ccc(O)cc1)C(=O)NC(Cc1c[nH]c2ccccc12)C(=O)NC(CCCCN)C(=O)NC(C(=O)NC(C)C(=O)NC(Cc1ccc2ccccc2c1)C(N)=O)C(C)C (stereo not drawn) (H-FAYWKVA[2Nal]-NH2; configuration not given here) | > 12.5 µM and 48.7 µM | > 12.5 µM and 53.5 µM | > 12.5 µM and 49 µM | > 12.5 µM and 75.4 µM | 71.1 |  | > 100 | > 12.5 µM and 75.7 µM | > 12.5 | 23.1 | 24.1 | 25.7 |  |  |  | > 100 | 26.8 | 20.7

Reference: PubChem BioAssay (NCI)
